Results as given in ChEMBL document CHEMBL1145484, “Evaluation of the metS and murB loci for antibiotic discovery using targeted antisense RNA expression analysis in Bacillus anthracis” (2007).
Values after ≈ are worked out from the molar mass of the structure shown.

System: Bacillus anthracis
Experiment: Antibacterial activity against Bacillus anthracis UM23C1-1
Type: functional

Compound `O=C(O)c1ccc(OCc2nc3ccccc3[nH]2)c(OCc2ccc(Cl)cc2Cl)c1` has an MIC of 2 µg/mL (≈ 4.51 µM).
